Assay results reported in patent US9867879B2 (Vanderbilt University, priority 2015, dated 2018).

Assays:
wild type S. aureus hemY = biological target: T1, wild type S. aureus hemY (Staphylococcus aureus, UniProt Q2FXA5); assay: Activation of hemY, wild type; format: biochemical
T1 sequence (Q2FXA5 1-466): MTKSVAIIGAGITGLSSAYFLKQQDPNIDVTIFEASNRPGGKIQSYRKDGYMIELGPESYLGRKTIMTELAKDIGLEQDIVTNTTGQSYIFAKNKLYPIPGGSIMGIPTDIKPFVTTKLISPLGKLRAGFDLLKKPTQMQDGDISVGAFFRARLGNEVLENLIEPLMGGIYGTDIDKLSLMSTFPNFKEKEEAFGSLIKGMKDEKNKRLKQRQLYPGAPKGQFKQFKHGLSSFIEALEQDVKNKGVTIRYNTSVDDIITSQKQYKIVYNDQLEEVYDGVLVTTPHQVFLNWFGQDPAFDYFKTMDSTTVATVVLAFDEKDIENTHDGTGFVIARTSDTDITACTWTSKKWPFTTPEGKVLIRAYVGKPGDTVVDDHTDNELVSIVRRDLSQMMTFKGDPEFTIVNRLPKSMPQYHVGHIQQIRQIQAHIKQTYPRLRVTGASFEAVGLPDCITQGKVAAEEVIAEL

mammalian PPO = biological target: T2, mammalian PPO (Homo sapiens, UniProt P50336); assay: Activation of mammalian PPO; format: biochemical
T2 sequence (P50336 1-477): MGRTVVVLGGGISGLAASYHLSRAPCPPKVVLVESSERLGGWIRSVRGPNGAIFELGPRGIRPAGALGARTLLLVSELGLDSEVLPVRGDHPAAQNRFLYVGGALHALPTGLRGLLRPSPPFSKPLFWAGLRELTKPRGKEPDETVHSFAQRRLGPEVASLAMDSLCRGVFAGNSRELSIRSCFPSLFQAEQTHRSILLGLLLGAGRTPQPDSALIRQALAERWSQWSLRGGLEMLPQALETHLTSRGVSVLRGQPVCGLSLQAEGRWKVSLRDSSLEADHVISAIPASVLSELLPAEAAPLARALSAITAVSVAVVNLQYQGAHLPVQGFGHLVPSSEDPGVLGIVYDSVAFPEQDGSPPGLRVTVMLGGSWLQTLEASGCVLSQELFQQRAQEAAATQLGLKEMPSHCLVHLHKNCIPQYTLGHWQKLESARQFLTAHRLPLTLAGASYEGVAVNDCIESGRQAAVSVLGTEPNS

hemY/PPO [1] = biological target: hemY/PPO (Bacillus subtilis, UniProt P32397); assay: Activation of hemY/PPO, Bacillus subtilis; format: biochemical
S. aureus = assay: Phototherapy: compound plus light, CFU count; format: cell-based
Method: Briefly, S. aureus was incubated with the 882 compound for 30 minutes at 37° C., treated with light for 45 minutes (500 W halogen), and then a colony-forming unit (CFU) count was conducted.

[2] = system: heme biosynthetic pathway; assay: Accumulation of heme precursor molecules; format: cell-based, S. aureus; conditions: data not shown
Text: Because ALA is the first committed precursor molecule in the heme biosynthetic pathway, if ALA is contacted with bacteria, the bacteria will generated enhanced amounts of all of the heme precursor molecules downstream of ALA.

hemY/PPO [3] = assay: Activation of hemY/PPO, Propionibacterium acnes; format: biochemical
[4] = biological target: T183K point mutant of hemY (Staphylococcus aureus, UniProt Q2FXA5, T183K); assay: Activation of hemY, T183K mutant; format: biochemical, S. aureus

hemY/PPO (Bacillus subtilis, UniProt P32397), sequence (P32397 whole entry): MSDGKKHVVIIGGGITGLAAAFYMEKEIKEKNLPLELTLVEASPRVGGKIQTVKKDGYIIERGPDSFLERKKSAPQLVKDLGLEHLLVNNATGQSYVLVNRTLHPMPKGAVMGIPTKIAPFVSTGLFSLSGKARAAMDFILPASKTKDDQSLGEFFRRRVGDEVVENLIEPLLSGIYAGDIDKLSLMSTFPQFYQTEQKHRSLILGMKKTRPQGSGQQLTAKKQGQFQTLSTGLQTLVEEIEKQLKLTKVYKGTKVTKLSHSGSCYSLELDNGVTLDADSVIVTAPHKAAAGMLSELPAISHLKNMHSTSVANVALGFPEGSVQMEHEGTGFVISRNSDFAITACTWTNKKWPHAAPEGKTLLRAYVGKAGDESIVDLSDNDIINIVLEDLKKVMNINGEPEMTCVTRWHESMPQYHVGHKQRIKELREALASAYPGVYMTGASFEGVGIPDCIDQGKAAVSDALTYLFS

Oc1c(-c2cc(-c3ccco3)[nH]n2)ccc2ccccc12 [882 compound]
activation of hemY (wild type S. aureus hemY): activates wild type S. aureus hemY
activation of PPO (mammalian PPO): activates
activation of hemY/PPO (hemY/PPO [1]): activates hemY/PPO in Bacillus subtilis
toxicity with light compared to ALA and light (S. aureus; 882 50 μM and light vs ALA 10 mg/mL and light): more toxic to the bacteria than ALA
photosensitization (S. aureus; 30 min at 37° C., light 45 min (500 W halogen), CFU count): leads to staphylococcal photosensitization
PPIX accumulation [2]: does increase PPIX accumulation
accumulation of PBG [2]: does not
activation of hemY/PPO (hemY/PPO [3]): activates
activation of hemY [4]: not the T183K point mutant of hemY
